# According to patent US11766422B2, “Galloylated procyanidins for treating endovascular dysfunction and increasing blood flow” (UNIVERSITY OF SOUTH FLORIDA, priority 2018, dated 2023):
# Where two headings read alike, the source gives them in different places.
# Assays:
# RAW264.7 mouse cells = experiment: Nitric Oxide Assay (DAF-FM fluorescence, confocal microscopy); assay type: cell-based
# Method: Drug Preparation. […] The current formulation, L-arginine (COMPOUND SOLUTIONS) and L-citrulline DL-malate 2:1 (COMPOUND SOLUTIONS) were each prepared at 300 mg/ml in DMEM without phenol red (CORNING) and stored at −20° C. until use. Arginine silicate and lipopolysaccharides from E. coli 0111: B4 (LPS; SIGMA ALDRICH) were dissolved in DMSO to 300 mg/ml and 50 μg/ml, respectively, and stored frozen until use. 4,5-Diaminofluorescein Diacetate (DAF-FM) was diluted from 5 mM stocks in DMSO.
# Cell Culture. […] All experiments were completed with cultures under 8 passages, and cell densities were maintained between 0.2×10^6 and 0.8×10^6 cells per ml during maintenance.
# Cells were triturated with complete growth medium. Density was determined under phase-contrast using 0.2% Trypan blue. Three viable cell counts were performed on the hemocytometer and averaged.
# Nitric Oxide Assay. […] DAF-FM diacetate is essentially non-fluorescent until it reacts with nitric oxide to form a fluorescent benzotriazole. DAF-FM diacetate is cell-permeant and passively diffuses across cellular membranes. Once inside cells, it is deacetylated by intracellular esterases to become DAF-FM.
# Here, cells (50,000) in 3 ml of complete growth medium were plated onto 35-mm glass bottom dishes (MATTEK) pre-coated with poly-D-lysine. Cells were grown for 24 h and washed twice in HBS. Three (3) ml of serum-free medium was added. Cells were then treated with 1 μM lipopolysaccharide or various concentrations of test agents and grown for an additional 30 min. DAF-FM was added to cells to a final concentration of 2 μM and incubated for an additional 30 min.
# For confocal microscopy, medium was removed, and cells were washed once in HBS and replaced with 3 ml Live Cell Imaging solution (INVITROGEN). […] For cell treatments resulting in little or no fluorescence, 4′,6-diamidino-2-phenylindole (DAPI, MOLECULAR PROBES) was added at a final concentration of 300 nM to an additional sample. Images were captured and analyzed as tiff formatted files. […] For determining fluorescence, the entire image was analyzed for each image taken.
# [1] = system: heme oxygenase 1 in RAW264, 7 cells; conditions: galloyl-derivative compared to non-galloylated parent molecule; cited from earlier work
# HUVEC [2] = conditions: cited from earlier work
# pancreatic lipase = molecular target: T1, pancreatic lipase (Homo sapiens, UniProt P16233); conditions: Control: Untreated enzyme; cited from earlier work
# T1 sequence (P16233 17-465): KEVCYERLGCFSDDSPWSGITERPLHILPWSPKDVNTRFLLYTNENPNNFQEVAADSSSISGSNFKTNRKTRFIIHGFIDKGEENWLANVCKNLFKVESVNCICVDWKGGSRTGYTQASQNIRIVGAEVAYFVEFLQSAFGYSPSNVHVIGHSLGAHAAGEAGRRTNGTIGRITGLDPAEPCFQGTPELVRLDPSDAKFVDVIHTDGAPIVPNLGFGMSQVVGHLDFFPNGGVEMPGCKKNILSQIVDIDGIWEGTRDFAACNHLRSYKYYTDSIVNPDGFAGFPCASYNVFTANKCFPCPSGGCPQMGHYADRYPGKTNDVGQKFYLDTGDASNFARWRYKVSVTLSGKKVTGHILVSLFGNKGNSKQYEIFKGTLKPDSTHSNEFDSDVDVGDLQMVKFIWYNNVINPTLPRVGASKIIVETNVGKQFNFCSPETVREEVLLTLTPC
# [3] = system: S-G cells (immortalized gum epithelial cells); conditions: cited from earlier work
# fatty acid synthase = fatty acid synthase (Homo sapiens, UniProt P49327); conditions: Control: Untreated enzyme; cited from earlier work
# HUVEC [4] = conditions: Control: Untreated cells; cited from earlier work
# [5] = molecular target: type 1 ryanodine receptor (Homo sapiens, UniProt P21817); conditions: Control: Untreated receptor; cited from earlier work
# NA+/K+ ATPase pump = conditions: Control: Untreated pump; cited from earlier work
# NA/H exchanger = conditions: Control: Untreated exchanger; cited from earlier work
# [6] = system: human umbilical vein endothelial cells (HUVEC); conditions: galloyl-derivative compared to non-galloylated parent molecule; cited from earlier work
# [7] = Control: C, EC; cited from earlier work
# [8] = system: fatty acid synthase expression, MCF-7 cells; conditions: Control: Untreated cells; cited from earlier work
# HL-60 cells [9] = conditions: Control: Untreated cells; cited from earlier work
# [10] = molecular target: T2, rat liver microsomal 5α-reductase (Rattus norvegicus, UniProt P24008); conditions: cited from earlier work
# T2 sequence (P24008 1-259): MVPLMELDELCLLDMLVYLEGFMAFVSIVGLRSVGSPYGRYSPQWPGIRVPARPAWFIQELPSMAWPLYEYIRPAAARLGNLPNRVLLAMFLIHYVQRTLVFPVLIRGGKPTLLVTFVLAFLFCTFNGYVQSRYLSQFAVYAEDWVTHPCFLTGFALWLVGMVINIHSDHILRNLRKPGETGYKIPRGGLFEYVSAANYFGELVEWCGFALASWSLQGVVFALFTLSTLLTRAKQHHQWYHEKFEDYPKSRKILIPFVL
# HL-60 cells [11] = conditions: Control: Untreated cells; cited from earlier work; remark: listed apart in the source
# LNCaP and DU145 cells = conditions: Control: Untreated cells; cited from earlier work
# [12] = system: MCF-7 and MDA-MB231 cells; conditions: Control: Untreated cells; cited from earlier work
# erythrocytes = conditions: Control: Untreated erythrocytes; cited from earlier work
# K562 cells = conditions: cited from earlier work
# Sequence of fatty acid synthase (P49327 whole entry, species assumed): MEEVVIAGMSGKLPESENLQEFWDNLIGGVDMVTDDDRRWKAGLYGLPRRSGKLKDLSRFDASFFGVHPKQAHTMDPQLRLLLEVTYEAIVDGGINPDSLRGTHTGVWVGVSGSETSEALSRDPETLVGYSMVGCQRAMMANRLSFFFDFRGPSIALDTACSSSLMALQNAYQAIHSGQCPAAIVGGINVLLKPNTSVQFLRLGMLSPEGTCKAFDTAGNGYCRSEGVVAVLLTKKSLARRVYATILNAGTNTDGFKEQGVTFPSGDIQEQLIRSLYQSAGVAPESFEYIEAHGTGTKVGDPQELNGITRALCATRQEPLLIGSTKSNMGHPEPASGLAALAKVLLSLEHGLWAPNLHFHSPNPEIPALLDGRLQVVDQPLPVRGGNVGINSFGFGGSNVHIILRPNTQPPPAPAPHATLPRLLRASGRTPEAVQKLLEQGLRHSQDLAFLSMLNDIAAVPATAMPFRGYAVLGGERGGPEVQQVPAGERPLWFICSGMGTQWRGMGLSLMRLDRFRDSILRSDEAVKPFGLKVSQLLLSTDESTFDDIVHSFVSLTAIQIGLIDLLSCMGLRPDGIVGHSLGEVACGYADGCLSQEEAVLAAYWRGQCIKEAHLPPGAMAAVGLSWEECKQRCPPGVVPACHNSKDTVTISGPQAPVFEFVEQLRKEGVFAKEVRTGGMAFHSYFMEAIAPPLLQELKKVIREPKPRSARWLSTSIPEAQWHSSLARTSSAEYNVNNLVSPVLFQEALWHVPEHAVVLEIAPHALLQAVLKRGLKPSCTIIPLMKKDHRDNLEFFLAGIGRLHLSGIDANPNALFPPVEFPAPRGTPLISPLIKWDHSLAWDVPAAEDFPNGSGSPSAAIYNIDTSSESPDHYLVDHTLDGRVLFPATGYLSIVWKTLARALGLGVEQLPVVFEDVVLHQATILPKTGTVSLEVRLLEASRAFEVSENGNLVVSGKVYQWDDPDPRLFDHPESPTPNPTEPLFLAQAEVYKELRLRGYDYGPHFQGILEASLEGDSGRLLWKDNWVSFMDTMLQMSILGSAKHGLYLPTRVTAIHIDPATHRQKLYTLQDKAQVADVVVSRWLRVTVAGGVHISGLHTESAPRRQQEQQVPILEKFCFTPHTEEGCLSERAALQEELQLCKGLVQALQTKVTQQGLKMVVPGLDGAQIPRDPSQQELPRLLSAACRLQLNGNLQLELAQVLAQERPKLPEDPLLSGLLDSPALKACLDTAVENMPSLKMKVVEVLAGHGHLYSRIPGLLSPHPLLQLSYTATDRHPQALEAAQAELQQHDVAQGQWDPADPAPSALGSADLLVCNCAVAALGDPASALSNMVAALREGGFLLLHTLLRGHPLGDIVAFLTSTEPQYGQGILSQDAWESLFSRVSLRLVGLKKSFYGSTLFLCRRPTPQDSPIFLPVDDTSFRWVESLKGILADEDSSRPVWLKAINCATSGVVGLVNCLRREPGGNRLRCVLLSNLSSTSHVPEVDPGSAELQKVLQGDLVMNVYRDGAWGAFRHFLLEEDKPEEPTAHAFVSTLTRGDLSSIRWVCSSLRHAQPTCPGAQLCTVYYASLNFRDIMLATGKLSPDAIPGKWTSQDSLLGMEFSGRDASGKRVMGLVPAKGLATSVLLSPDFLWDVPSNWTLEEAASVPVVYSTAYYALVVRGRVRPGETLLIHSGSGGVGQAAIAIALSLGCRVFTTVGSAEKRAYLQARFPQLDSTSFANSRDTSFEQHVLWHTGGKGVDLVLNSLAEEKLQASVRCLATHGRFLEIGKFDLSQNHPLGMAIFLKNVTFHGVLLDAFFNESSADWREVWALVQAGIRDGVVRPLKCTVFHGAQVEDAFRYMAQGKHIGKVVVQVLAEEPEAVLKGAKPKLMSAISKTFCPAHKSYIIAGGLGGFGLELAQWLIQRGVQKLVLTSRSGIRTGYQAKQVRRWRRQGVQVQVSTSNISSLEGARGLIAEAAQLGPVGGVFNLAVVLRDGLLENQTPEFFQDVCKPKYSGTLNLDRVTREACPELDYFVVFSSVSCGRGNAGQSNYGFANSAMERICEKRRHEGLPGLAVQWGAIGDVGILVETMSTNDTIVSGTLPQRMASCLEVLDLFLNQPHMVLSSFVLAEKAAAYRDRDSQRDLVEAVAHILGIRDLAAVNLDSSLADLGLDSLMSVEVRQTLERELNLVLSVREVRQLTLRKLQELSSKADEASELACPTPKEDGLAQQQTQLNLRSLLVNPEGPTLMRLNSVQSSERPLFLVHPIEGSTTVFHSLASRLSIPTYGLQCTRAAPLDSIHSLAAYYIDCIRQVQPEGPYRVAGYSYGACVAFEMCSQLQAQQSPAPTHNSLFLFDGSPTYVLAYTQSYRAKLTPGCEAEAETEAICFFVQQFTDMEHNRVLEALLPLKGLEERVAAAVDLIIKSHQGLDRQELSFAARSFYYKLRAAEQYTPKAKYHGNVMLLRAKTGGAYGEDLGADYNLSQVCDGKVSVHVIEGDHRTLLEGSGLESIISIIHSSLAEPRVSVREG
compound,measurement,setting,value
"NC(=O)NCCC[C@H](N)C(=O)O.NC(=O)NCCC[C@H](N)C(=O)O.O=C(O)CC(O)C(=O)O (racemic) [L-citrulline-DL-malate 2:1, L-citrulline DL-malate 2:1]",mean fluorescence (DAF-FM),"RAW264.7 mouse cells; RAW264.7 cells, 600 μg/ml samples",noticeably low mean fluorescence
O=C(Oc1c(-c2ccc(O)c(O)c2)oc2cc(O)cc(O)c2c1=O)c1cc(O)c(O)c(O)c1 [3GQ],"Effect: Induction of heme oxygenase 1 in RAW264, 7 cells",[1],↓↓
same,"Effect: Cytotoxicity, inhibition of proliferation, migration and tube formation of HUVEC",HUVEC [2],↑↑
O=C(Oc1cc(O)c2c(c1)O[C@H](c1ccc(O)c(O)c1)[C@@H](O)C2=O)c1cc(O)c(O)c(O)c1 [7GT],"Effect: Induction of heme oxygenase 1 in RAW264, 7 cells",[1],↑↑↑
same,"Effect: Cytotoxicity, inhibition of proliferation, migration and tube formation of HUVEC",HUVEC [2],↑↑
O=C(O[C@H]1Cc2c(O)cc(O)cc2O[C@@H]1c1ccc(O)c(O)c1)c1cc(O)c(O)c(O)c1 [CG],Effect: Reduction of pancreatic lipase activity in vitro,pancreatic lipase,↑↑↑
same,Effect: Cytotoxicity towards S-G cells (immortalized gum epithelial cells),[3]; Control: Untreated cells,↑↑↑
"Oc1cc(O)c2c(c1)O[C@H](c1ccc(O)c(O)c1)[C@H](O)C2 [EC, epicatechin]",Effect: Cytotoxicity towards S-G cells (immortalized gum epithelial cells),[3],↑
"O=C(O[C@@H]1Cc2c(O)cc(O)cc2O[C@@H]1c1ccc(O)c(O)c1)c1cc(O)c(O)c(O)c1 [ECG, Epicatechin gallate]",Effect: Inhibition of fatty acid synthase activity,fatty acid synthase,↑↑↑
same,Effect: Reduction of pancreatic lipase activity in vitro,pancreatic lipase,↑↑
same,Effect: Inhibition of VEGF-induced proliferation of HUVEC,HUVEC [4],↑↑
same,Effect: Activiation of type 1 ryanodine receptor,[5],↑↑↑
same,Effect: Inhibition of NA+/K+ ATPase pump activity,NA+/K+ ATPase pump,↑↑
same,Effect: Inhibition of NA/H exchanger activity,NA/H exchanger,↑↑
same,Effect: Inhibition of VEGF-induced proliferation migration and tube formation of human umbilical vein endothelial cells (HUVEC),[6],↑^c
same,Effect: Cytotoxicity towards S-G cells (immortalized gum epithelial cells),[3]; Control: Untreated cells,↑↑↑
"O=C(O[C@@H]1Cc2c(O)cc(O)cc2O[C@@H]1c1cc(O)c(O)c(O)c1)c1cc(O)c(O)c(O)c1 [EGCG, epigallocatechin gallate]",Effect: Inhibition of fatty acid synthase activity,fatty acid synthase,↑↑↑
same,Effect: Trolox-equivalent antioxidant activity,[7],↑↑
same,Effect: Reduction of pancreatic lipase activity in vitro,pancreatic lipase,↑↑
same,Effect: Inhibition of VEGF-induced proliferation of HUVEC,HUVEC [4],↑↑
same,Effect: Activiation of type 1 ryanodine receptor,[5],↑↑↑
same,Effect: Inhibition of NA+/K+ ATPase pump activity,NA+/K+ ATPase pump,↑↑
same,Effect: Inhibition of NA/H exchanger activity,NA/H exchanger,↑
same,Effect: Suppression of fatty acid synthase expression n MCF-7 cells,[8],↑↑↑
same,Effect: Reduction of cell viability in HL-60 cells,HL-60 cells [9],↑↑
same,Effect: Inhibition of rat liver microsomal 5α-reductase,[10]; Control: Untreated enzyme,↑
same,Effect: Cytotoxicity towards S-G cells (immortalized gum epithelial cells),[3],↑↑↑
same,"Effect: Cytotoxicity, inhibition of proliferation, migration and tube formation of HUVEC",HUVEC [2]; galloyl-derivative compared to non-galloylated parent molecule,↑↑^c
Oc1cc(O)c2c(c1)O[C@H](c1cc(O)c(O)c(O)c1)[C@H](O)C2 [EGC],Effect: Inhibition of fatty acid synthase activity,fatty acid synthase,↑
same,Effect: Inhibition of VEGF-induced proliferation of HUVEC,HUVEC [4],↑
same,Effect: Activiation of type 1 ryanodine receptor,[5],↑
same,Effect: Inhibition of NA+/K+ ATPase pump activity,NA+/K+ ATPase pump,↑
same,Effect: Inhibition of NA/H exchanger activity,NA/H exchanger,↑↑↑
same,Effect: Suppression of fatty acid synthase expression n MCF-7 cells,[8],•
same,Effect: Cytotoxicity towards S-G cells (immortalized gum epithelial cells),[3]; Control: Untreated cells,↑↑
"O=C(O)c1cc(O)c(O)c(O)c1 [GA, gallic acid]",Effect: Inhibition of fatty acid synthase activity,fatty acid synthase,↑
same,Effect: Induction of apoptosis in HL-60 cells,HL-60 cells [11],↑↑
O=C(O[C@@H]1Cc2c(O)cc(O)cc2O[C@H]1c1cc(O)c(O)c(O)c1)c1cc(O)c(O)c(O)c1 [GCG],Effect: Reduction of pancreatic lipase activity in vitro,pancreatic lipase,↑↑↑
N=C(N)NCCC[C@H](N)C(=O)O [L-arginine],mean fluorescence (DAF-FM),RAW264.7 mouse cells,noticeably low mean fluorescence
O=C(OC[C@H]1O[C@@H](OC(=O)c2cc(O)c(O)c(O)c2)[C@H](OC(=O)c2cc(O)c(O)c(O)c2)[C@@H](OC(=O)c2cc(O)c(O)c(O)c2)[C@@H]1OC(=O)c1cc(O)c(O)c(O)c1)c1cc(O)c(O)c(O)c1 [PGG],Effect: Inhibitory effects on LNCaP and DU145 cells,LNCaP and DU145 cells,↑↑↑
same,Effect: Growth inhibition of MCF-7 and MDA-MB231 cells,[12],↑↑↑
same,Effect: Reduction of cell viability in HL-60 cells,HL-60 cells [9],↑↑↑
same,Effect: Inhibition of rat liver microsomal 5α-reductase,[10],↑↑↑
same,Effect: Triggering of suicidal erythrocyte death,erythrocytes,↑↑
same,Effect: Cytotoxicity towards K562 cells,K562 cells,↑
catechin,Effect: Inhibition of fatty acid synthase activity,fatty acid synthase,•
same,Effect: Suppression of fatty acid synthase expression n MCF-7 cells,[8],•
lipopolysaccharides from E. coli 0111: B4 [LPS],DAF-FM fluorescence (nitric oxide levels),"RAW264.7 mouse cells; RAW264.7 cells, 1 ng/ml incubated for 30 minutes",bright and consistent DAF-FM fluorescence
